Where two headings read alike, the source gives them in different places.
Tests used:
human CB2R = target: T1, human CB2R (Homo sapiens, UniProt P34972); test: CB2R mediated modulation of cAMP synthesis; format: cell-based
T1 construct: host or cells: CHO cells
Method: B. CB2R Mediated Modulation of cAMP Synthesis:
Compounds of the invention are evaluated for their CB2 agonist or inverse agonistic activity in accordance with the following experimental method.
(§1) CHO cells expressing human CB2R (Euroscreen) are plated at a density of 5000 cells per well in 384 well plates and incubated overnight at 37° C. After removing the media, the cells are treated with test compounds diluted in stimulation buffer containing 1 mM IBMX, 0.25% BSA and 10 uM Forskolin. The assay is incubated for 30 minutes at 37° C. Cells are lysed and the cAMP concentration is measured using DiscoverX-XS cAMP kit, following the manufacturer's protocol. In this setting, agonists will decrease forskolin induced production of cAMP while inverse agonists will further increase forskolin induced production of cAMP. EC50 of agonists are calculated as follows. The maximal amount of cAMP produced by forskolin compared to the level of cAMP inhibited by 1 uM CP55940 is defined as 100%. […] Data is analyzed using a four-parameter logistic model. (Model 205 of XLfit 4.0).

human CB1R = target: T2, human CB1R (Homo sapiens, UniProt P21554); test: CB1R mediated modulation of cAMP synthesis; format: cell-based
T2 construct: host or cells: CHO cells
T2 sequence (P21554 whole entry): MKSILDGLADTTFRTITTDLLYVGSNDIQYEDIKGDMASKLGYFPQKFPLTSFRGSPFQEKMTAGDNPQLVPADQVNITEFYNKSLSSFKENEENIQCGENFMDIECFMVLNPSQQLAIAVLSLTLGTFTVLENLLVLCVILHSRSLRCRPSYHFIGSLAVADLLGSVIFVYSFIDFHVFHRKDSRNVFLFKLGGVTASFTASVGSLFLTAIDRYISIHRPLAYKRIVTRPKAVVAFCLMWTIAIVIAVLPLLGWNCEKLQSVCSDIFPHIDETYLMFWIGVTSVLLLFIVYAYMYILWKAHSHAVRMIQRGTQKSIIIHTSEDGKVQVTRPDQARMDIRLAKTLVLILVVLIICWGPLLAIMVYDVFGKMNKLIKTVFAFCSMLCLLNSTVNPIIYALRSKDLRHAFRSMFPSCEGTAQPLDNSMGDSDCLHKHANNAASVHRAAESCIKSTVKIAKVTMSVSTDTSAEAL
Method: C. CB1R Mediated Modulation of cAMP Synthesis:
Compounds of the invention are evaluated for their CB1 agonist or inverse agonistic activity in accordance with the following experimental method.
as §1, with “CB1R” for “CB2R”

[1] = CHO cells expressing human CB2R, inhibition of forskolin-stimulated cAMP synthesis, read-out: CB2 EC50
[2] = CHO cells expressing human CB1R, inhibition of forskolin-stimulated cAMP synthesis, read-out: CB1 EC50

T1 sequence (P34972 whole entry): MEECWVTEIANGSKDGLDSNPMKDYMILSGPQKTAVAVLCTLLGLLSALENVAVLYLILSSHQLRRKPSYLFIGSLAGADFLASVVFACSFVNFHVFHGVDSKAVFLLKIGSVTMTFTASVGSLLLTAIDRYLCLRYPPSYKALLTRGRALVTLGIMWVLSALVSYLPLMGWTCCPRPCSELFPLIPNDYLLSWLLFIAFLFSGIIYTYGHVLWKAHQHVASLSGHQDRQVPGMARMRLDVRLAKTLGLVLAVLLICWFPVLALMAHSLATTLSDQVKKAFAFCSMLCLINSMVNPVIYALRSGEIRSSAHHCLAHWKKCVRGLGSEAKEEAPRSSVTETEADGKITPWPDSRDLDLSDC

Structure (SMILES)	EC50 (human CB2R) [nM]	EC50 (human CB1R) [nM]	EC50 (human CB2R; [1]) [nM]	EC50 (human CB1R; [2]) [nM]
CC(C)(CO)c1nnc(NC(=O)C(C)(C)S(=O)(=O)C[C@H]2CCCCO2)s1	28	> 50000	–	–
COCC(C)(C)c1cc(NC(=O)C(C)(C)S(=O)(=O)CC2CCOCC2)no1	–	–	137	> 20000
CC(C)(CO)c1cc(NC(=O)C(C)(C)S(=O)(=O)N2CCC2)on1	–	–	288	> 20000
CC(C)(CO)c1cc(NC(=O)C(C)(C)S(=O)(=O)CC[C@H]2CCOC2)on1	6.2	> 20000	–	–
CC(C)(C(=O)Nc1cc(C2(CO)CC2)no1)S(=O)(=O)C1CCOCC1	–	–	117	> 50000
CC(C)(CO)c1cc(NC(=O)C(C)(C)S(=O)(=O)C2CCN(S(C)(=O)=O)CC2)no1	91	> 50000	–	–
COCC(C)(C)c1cc(NC(=O)C(C)(C)S(=O)(=O)CC2CC2)no1	–	–	121	> 50000
CC(C)(CO)c1cc(NC(=O)C(C)(C)S(=O)(=O)CCC(F)(F)F)on1	–	–	105	> 50000
CC(C)(C(=O)Nc1cc(C2(CO)CCCC2)no1)S(=O)(=O)CC1CCC1	25	> 20000	–	–
CC(C)(CO)c1cc(NC(=O)C(C)(C)S(=O)(=O)C2CCOCC2)no1	33	> 50000	–	–
COc1ccc(-c2nnc(NC(=O)C(C)(C)S(=O)(=O)CC3CCC3)[nH]2)c(F)c1	7.6	> 20000	–	–
CC(C)(CO)c1cc(NC(=O)C(C)(C)S(=O)(=O)C2CCCC2)no1	–	–	222	≥ 50000
COc1ccc(-c2nnc(NC(=O)C(C)(C)S(=O)(=O)C3CCOCC3)[nH]2)cc1	0.66	> 20000	–	–
CC(C)(CO)c1cc(NC(=O)C(C)(C)S(=O)(=O)C2CCCC2)on1	75	> 20000	–	–
CC(C)(C(=O)Nc1cc(C2(CO)CCC2)no1)S(=O)(=O)CC1CCC1	74	> 50000	–	–
CC(C)(C(=O)Nc1nc(-c2cccc(O)c2)n[nH]1)S(=O)(=O)CC1CC1	–	–	283	> 50000
COc1ccc(-c2nnc(NC(=O)C(C)(C)S(=O)(=O)C3CCN(S(C)(=O)=O)CC3)[nH]2)cc1	16	29400	–	–
CC[C@H](C)S(=O)(=O)C(C)(C)C(=O)Nc1cc(C(C)(C)CO)no1	–	–	118	> 50000
CC[C@H](C)S(=O)(=O)C(C)(C)C(=O)Nc1nnc(-c2ccc(OC)cc2)[nH]1	47	> 50000	–	–
CC(C)CCS(=O)(=O)C(C)(C)C(=O)Nc1nnc(C(C)(C)CO)s1	18	> 20000	–	–
COc1ccccc1-c1n[nH]c(NC(=O)C(C)(C)S(=O)(=O)CC2CC2)n1	15	> 20000	–	–
CC(C)(CO)c1cc(NC(=O)C(C)(C)S(=O)(=O)CCCC(F)(F)F)on1	–	–	15	> 20000

Structure (SMILES)	EC50 (human CB2R) [nM]	EC50 (human CB1R) [nM]	EC50 (human CB2R; [1]) [nM]	EC50 (human CB1R; [2]) [nM]
CC(C)(CO)c1nnc(NC(=O)C(C)(C)S(=O)(=O)C2CCOCC2)s1	48	> 50000	–	–
CC(C)(CO)c1cc(NC(=O)C(C)(C)S(=O)(=O)CC[C@@H]2CCOC2)on1	14	> 50000	–	–
CC(C)(CO)c1cc(NC(=O)C(C)(C)S(=O)(=O)CC2CCOCC2)no1	–	–	208	> 50000
CC(C)(C(=O)Nc1cc(C2(CO)CCCCC2)no1)S(=O)(=O)CC1CCC1	67	> 20000	–	–
COc1ccc(-c2nnc(NC(=O)C(C)(C)S(=O)(=O)CC3CC3)[nH]2)cc1	32	> 50000	–	–
CC(C)(CO)c1cc(NC(=O)C(C)(C)S(=O)(=O)c2cccc(F)c2F)no1	69	> 50000	–	–
COc1ccc(-c2nnc(NC(=O)C(C)(C)S(=O)(=O)N3CCC3)[nH]2)cc1	32	> 20000	–	–
COc1ccc(-c2nnc(NC(=O)C(C)(C)S(=O)(=O)CC3(C)CCOCC3)[nH]2)cc1	–	–	186	> 20000
CC(C)CCS(=O)(=O)C(C)(C)C(=O)Nc1cc(C2(CO)CC2)no1	14	> 20000	–	–
CCOc1ccc(-c2n[nH]c(NC(=O)C(C)(C)S(=O)(=O)CC3CC3)n2)cc1	–	–	488	> 50000
CC(C)(C(=O)Nc1nnc(-c2ccc(O)cc2)[nH]1)S(=O)(=O)CC1CCOCC1	100	> 20000	–	–
CC(C)(CO)c1cc(NC(=O)C(C)(C)S(=O)(=O)c2cccc(F)c2F)on1	–	–	172	> 20000
CC(C)(C(=O)Nc1nnc(-c2ccc(O)cc2F)[nH]1)S(=O)(=O)C1CCOCC1	7.7	> 50000	–	–
CC(C)(C(=O)Nc1cc(C2(CO)CCCC2)no1)S(=O)(=O)C1CCCC1	45	> 20000	–	–
CC(C)(C(=O)Nc1nnc(-c2ccc(OC(F)(F)F)cc2)[nH]1)S(=O)(=O)C1CCOCC1	–	–	194	> 20000
CC(C)(C(=O)Nc1nc(-c2cccc(O)c2)n[nH]1)S(=O)(=O)C1CCOCC1	–	–	130	> 50000
COCC(C)(C)c1cc(NC(=O)C(C)(C)S(=O)(=O)C2CCOCC2)no1	3.5	> 50000	–	–
COCC(C)(C)c1cc(NC(=O)C(C)(C)S(=O)(=O)C2CCN(S(C)(=O)=O)CC2)no1	6.2	> 50000	–	–
CC(C)(O)c1cc(NC(=O)C(C)(C)S(=O)(=O)C2CCOCC2)on1	88	> 50000	–	–
CC(C)(CO)c1cc(NC(=O)C(C)(C)S(=O)(=O)c2ccc(F)cc2)no1	45	> 50000	–	–
COc1ccc(-c2nnc(NC(=O)C(C)(C)S(=O)(=O)C[C@@H]3CCOC3)[nH]2)cc1	240	> 50000	–	–
CC(C)(CO)c1cc(NC(=O)C(C)(C)S(=O)(=O)c2ccc(F)cc2)on1	30	> 20000	–	–

Structure (SMILES)	EC50 (human CB2R) [nM]	EC50 (human CB1R) [nM]	EC50 (human CB2R; [1]) [nM]	EC50 (human CB1R; [2]) [nM]
COc1ccc(-c2nnc(NC(=O)C(C)(C)S(=O)(=O)C3CCCC3)[nH]2)cc1	14	> 20000	–	–
CC(C)(C(=O)Nc1nnc(-c2ccc(O)cc2F)[nH]1)S(=O)(=O)CC1CCC1	9.4	35000	–	–
COc1ccc(-c2nnc(NC(=O)C(C)(C)S(=O)(=O)CC3CCOCC3)[nH]2)cc1	9.5	> 50000	–	–
CC(C)(C(=O)Nc1nnc(-c2ccc(O)cc2)[nH]1)S(=O)(=O)CC1CC1	34	> 50000	–	–
CC(C)(CO)c1cc(NC(=O)C(C)(C)S(=O)(=O)C2CCN(S(C)(=O)=O)CC2)on1	14	> 50000	–	–
CC(C)(C(=O)Nc1nc(-c2ccc(O)cc2)n[nH]1)S(=O)(=O)CC1CCC1	22	> 50000	–	–
CC(C)(C(=O)Nc1cc(C2(CO)CCC2)no1)S(=O)(=O)C1CCOCC1	77	> 50000	–	–
CC(C)(C(=O)Nc1nc(-c2ccccc2O)n[nH]1)S(=O)(=O)C1CCOCC1	30	> 20000	–	–
CC(C)(CO)c1cc(NC(=O)C2(S(=O)(=O)C3CCOCC3)CCC2)on1	–	–	212	> 50000
CC[C@H](C)S(=O)(=O)C(C)(C)C(=O)Nc1cc(C2(CO)CCCC2)no1	82	> 20000	–	–
COc1ccc(-c2nnc(NC(=O)C(C)(C)S(=O)(=O)CC3CC3)[nH]2)c(F)c1	34	> 50000	–	–
CO[C@H]1CC[C@@H](S(=O)(=O)C(C)(C)C(=O)Nc2cc(C(C)(C)CO)no2)CC1	57	> 50000	–	–
COCC(C)(C)c1cc(NC(=O)C(C)(C)S(=O)(=O)C2CCCC2)on1	15	> 20000	–	–
CCOc1ccc(-c2nnc(NC(=O)C(C)(C)S(=O)(=O)C3CCOCC3)[nH]2)cc1	–	–	208	> 50000
CC(C)(CO)c1cc(NC(=O)C(C)(C)S(=O)(=O)CC2CCC(=O)CC2)on1	68	> 50000	–	–
CC[C@@H](C)S(=O)(=O)C(C)(C)C(=O)Nc1nnc(-c2ccc(OC)cc2)[nH]1	83	> 50000	–	–
CC(C)(C(=O)Nc1nnc(-c2ccc(O)cc2)[nH]1)S(=O)(=O)c1ccc(F)cc1	4	> 20000	–	–
COc1ccc(-c2nnc(NC(=O)C(C)(C)S(=O)(=O)N3CC[C@@H](F)C3)[nH]2)cc1	33	> 50000	–	–
CC(C)(CO)c1cc(NC(=O)C(C)(C)S(=O)(=O)C2CCOCC2)on1	11	> 50000	–	–
COc1ccc(-c2nnc(NC(=O)C(C)(C)S(=O)(=O)C3CCOCC3)[nH]2)c(F)c1	13	> 50000	–	–
CC(C)(C(=O)Nc1cc(C2(CO)CCCCC2)no1)S(=O)(=O)C1CCOCC1	38	> 20000	–	–
COc1ccc(-c2nnc(NC(=O)C(C)(C)S(=O)(=O)c3ccc(S(C)(=O)=O)cc3F)[nH]2)cc1	2.1	> 20000	–	–

From patent US8048899B2, “Compounds which selectively modulate the CB2 receptor” (Boehringer Ingelheim International GmbH, priority 2008, dated 2011)
